{
  "source": "patent US12685732B2",
  "about": "“Composition for improving, preventing or treating muscular disorders including sulfonamide-based compounds” (The Industry & Academic Cooperation in Chungnam National …, priority 2022, dated 2026)",
  "key": {"[1]": {"system": "CTX-induced sarcopenia mouse model", "assay": "Rota Rod balance ability in CTX-induced sarcopenia mouse model", "assay_type": "in vivo", "conditions": "oral 50, 100, 500 mg/kg once/day 10 days; days 4, 9, 14; vs (+)PBS group", "procedure": "(§1) Specifically, the Rota Rod was measured before CTX injection, and after CTX was injected (day 0), the drug was orally administered once/day for 10 days, and on days 4, 9, and 14, the Rota Rod was measured, respectively."}, "[2]": {"system": "C2C12-PHF20/YY1-promoter-GFP cell line", "assay": "HTS system: GFP (green luminescence) in PHF20-overexpressing myoblasts carrying YY1 promoter-GFP", "assay_type": "cell-based, mouse", "conditions": "1 nM, 10 nM, 100 nM, 1 μM or 10 μM", "description": "C2C12 myoblasts, which were stable cells in which PHF20 was overexpressed, were transformed with a plasmid coexisting with a YY1 promoter and GFP, which inhibited muscle differentiation, to prepare a stable cell line. The degree of GFP signal suppression was quantified and measured, and the degree of muscle differentiation was used as a quantitative measurement index (FIG. 1).\nSpecifically, the C2C12-PHF20/YY1-promoter-GFP cell line according to Example 1 was dispensed in a 96-well plate at 0.5×10^5, cultured for 24 hours, and cells in a 70% confluent state were treated with 250 ng/ml of doxycycline for 24 hours, and then treated with each compound at a final concentration of 10 μM.\nFor fluorescence intensity, C2C12-PHF20/YY1-promoter-GFP cells were dispensed at 4×10^5 in a 6-well culture plate and cultured for 24 hours. […] Thereafter, the degree of green luminescence was confirmed using GloMax microplate readers explorer (Promega, Madison, Wisconsin, USA)."}, "[3]": {"system": "CTX-induced sarcopenia mouse model", "assay": "Muscle recovery by muscle type (myosin I, IIa, IIb antibody staining) in CTX-induced sarcopenia mouse model", "assay_type": "in vivo", "conditions": "4 μM oral", "procedure": "(§2) In order to construct a CTX-induced sarcopenia mouse model, cardiotoxin (LATOXAN, Portes-les-Valence, France) was dissolved at 1 mg/ml in PBS to make a high-concentration stock solution. To apply to the mice, the stock solution was diluted again in PBS at a final concentration of 0.03 mg/ml and used, and intramuscularly injected into both thigh muscles of the mouse using a 1 ml syringe (24 G) to construct a sarcopenia mouse model."}, "[4]": {"assay": "Body weight in CTX-induced sarcopenia mouse model", "assay_type": "in vivo", "conditions": "oral 50, 100, 500 mg/kg once/day 10 days, 14 days, except decrease in all groups on day 10 without diet supply", "procedure": "as §1\nFor a total of 14 days, the body weights of the mice were measured, and any change in body weight was confirmed.\n(§3) Specifically, the grip strength was measured before CTX injection, and after CTX was injected (day 0), the drug was orally administered once/day for 10 days, and on days 4, 9, and 14, the grip strength was measured, respectively."}, "[5]": {"system": "CTX-induced sarcopenia mouse model", "assay": "Muscle regeneration by H&E staining in CTX-induced sarcopenia mouse model", "assay_type": "in vivo", "conditions": "4 μM oral, 24 h after CTX; tissue on days 3, 6, 10; vs non-administered control", "procedure": "as §2\nSpecifically, for mouse muscle tissue immunostaining, the muscle tissues of a comparative group and a sulfamethazine-treated group were fixed in 4% paraformaldehyde, washed, and fixed in paraffin. Tissues were cut to a thickness of about […], fixed to a slide, and then stained using an antibody for each muscle type."}, "C57BL/6J mice [6]": {"system": "C57BL/6J mice", "assay": "Single oral dose toxicity: tissue weights at autopsy", "assay_type": "in vivo, mouse", "conditions": "single oral 100, 500, 1000 mg/kg; male and female; day 14", "procedure": "The body weights were measured before administration, and on 1 day, 3 days, 7 days, and 14 days after administration, and an autopsy was performed on day 14.\nIn the present disclosure, a single oral dose toxicity test refers to a test that qualitatively and quantitatively examines toxicity in a short period of time when a test substance was administered to test animals in a single dose (including divided doses within 24 hours)."}, "[7]": {"system": "CTX-induced sarcopenia mouse model", "assay": "Grip strength recovery in CTX-induced sarcopenia mouse model", "assay_type": "in vivo", "conditions": "oral 50, 100, 500 mg/kg once/day 10 days, days 4, 9, 14", "procedure": "as §3"}, "C57BL/6J mice [8]": {"system": "C57BL/6J mice", "assay": "Single oral dose toxicity: liver pathology by H&E staining", "assay_type": "in vivo, mouse", "conditions": "single oral 100, 500, 1000 mg/kg; male and female; day 14", "procedure": "As in Example 7-1, mice with single oral administration were dissected on day 14 after administration, and histochemical toxicity was evaluated. The pathology of the liver was observed through H&E staining on the dissected liver tissue."}, "C57BL/6J mice [9]": {"system": "C57BL/6J mice", "assay": "Single oral dose toxicity: blood liver, heart and kidney toxicity markers", "conditions": "single oral 100, 500, 1000 mg/kg; male and female; serum day 14", "experimental": "7-week-old male and female C57BL/6J mice with the body weight of 20±3 g were obtained from DooYeol Biotech (Seoul, South Korea). The mice were bred under constant room temperature and 12 h night/day cycle for 1 week before the experiment, and the mice were fed with a standard rodent diet and were freely taken with water.\nThe collected blood was left at room temperature for 1 hour to be coagulated, and the serum was isolated by operating a centrifuge (13,000 rpm) for 20 minutes. Blood analysis was performed by dividing liver toxicity, heart toxicity, and kidney toxicity, and the analysis was conducted by requesting DooYeol Biotech (Seoul, Korea)."}},
  "data": [
    {"substance": "sulfamethazine", "values": [
      {"measurement": "balance ability of the Rota Rod", "setting": "[1]", "result": "the higher the dose of sulfamethazine, the higher the balance ability of the Rota Rod"},
      {"measurement": "intensity of green fluorescence by concentration", "setting": "[2]", "result": "the higher the treated concentration of sulfamethazine, the weaker the intensity of fluorescence"},
      {"measurement": "expression of myosin I", "setting": "[3]; day 6", "result": "expression of blue-stained myosin I was increased"},
      {"measurement": "muscle image by myosin type staining", "setting": "[3]; day 10", "result": "recovered similarly to that of a normal control group on day 0"},
      {"measurement": "expression of myosin IIa and myosin IIb", "setting": "[3]; vs control group", "result": "increase in expressions of green myosin IIa and red myosin IIb"},
      {"measurement": "body weight", "setting": "[4]; Rota Rod study", "result": "no change in body weight was observed"},
      {"measurement": "body weight", "setting": "[4]; grip strength study", "result": "no change in body weight was observed"},
      {"measurement": "degree of muscle differentiation / regeneration by H&E staining", "setting": "[5]", "result": "the muscle was regenerated compared to the control group"},
      {"measurement": "tissue weight", "setting": "C57BL/6J mice [6]", "result": "no singularity in tissue weight"},
      {"measurement": "grip strength, all four paws", "setting": "[7]", "result": "grip strength was increased in a sulfamethazine concentration-dependent manner"},
      {"measurement": "grip strength, hind legs (2 paws)", "setting": "[7]; vs (+)PBS group", "result": "grip strength of mice increased as the dose of sulfamethazine increased"},
      {"measurement": "liver pathology (H&E)", "setting": "C57BL/6J mice [8]", "result": "no specific pathological findings were observed"},
      {"measurement": "blood liver toxicity, heart toxicity and kidney toxicity markers", "setting": "C57BL/6J mice [9]", "result": "no specific phenomena related to liver toxicity, heart toxicity, and kidney toxicity"}
    ]}
  ]
}
